Counter-ions that a name gives are not always drawn.
Key:
[1] = Irritation on intraperitoneal injection, salt compared with free base; assay type: in vivo
normal and diabetic rats [2] = experiment: IgG bound to glomerular basement membranes, enzyme immunoassay; assay type: in vivo, rat; conditions: 25 mg/kg daily intraperitoneal, 16 weeks
Procedure: To measure the level of advanced glycosylation end products in vivo, the kidneys of rats were examined for serum proteins which had become attached to glomerular basement membranes. This was determined to be a good model in which to study this process as it is known that significant kidney pathology occurs in untreated diabetes as a result of the buildup of extravasated plasma protein in the extravascular matrix in this organ.
(§1) The experiment consisted of giving both normal and diabetic rats daily intraperitoneal doses of the agent aminoguanidine hydrochloride at a dose of 25 mg per kilogram of body weight, for a period of 16 weeks. […] Diabetes was induced prior to drug therapy with a single dose of streptozotocin. Control animals, both diabetic and normal, received no drug.
At the end of the agent therapy, animals were sacrificed and the kidneys were removed. Each organ was removed from its capsule and the medulla was removed. […]
After overnight incubation to allow the antibody to bind to any IgG crosslinked to the glomerular basement membranes, the membranes were pelleted by centrifugation at 3200 rpm for five minutes and were washed free of the unbound antibody-enzyme conjugate with four rinses with PBS plus Tween followed by three rinses with distilled water. […] The reaction was stopped with the addition of 0.2 mL of M sodium hydroxide, and the absorbance at 400 nm was measured.

normal and diabetic rats [3] = experiment: Cross-linking of lipoprotein to aorta collagen, ELISA for apolipoprotein-B; assay type: in vivo, rat; conditions: 25 mg/kg daily i.p., 16 weeks
Procedure: as §1
Aorta samples from the same group of animals described in Example IV above, were subjected to analysis for cross-linking of lipoprotein to collagen, using an enzyme immunoassay. A standard ELISA procedure was employed, using antiserum to rat apoliproprotein-B raised in rabbits, peroxidase-labeled anti-rabbit antibody, and standard chromogenic reagents to detect quantity of antibody bound.

gelatin (collagen) = experiment: Protein trapping: radioiodinated albumin bound to gelatin (collagen) agarose beads with glucose-6-phosphate; assay type: biochemical; conditions: agent 200 mN, 400 mN glucose-6-phosphate, two weeks, 37° C.
Description: To more precisely measure the effect of the agents on the inhibition of protein crosslinking, an assay system was devised to measure the extent of in vitro binding of a soluble protein to an insoluble protein. This assay system mimics the events which occur in tissues in which serum proteins become bound to proteins in extravascular matrix and which lead to accumulation of protein and narrowing of vessel lumina in several other tissues. These events in vivo give rise to kidney disease and atherosclerotic disease, and lead to the pathologies associated with diabetes and aging.
To measure protein trapping (i.e., binding or accumulation), gelatin (collagen) was coupled to activated agarose beads (Affigel 10, Bio-Red Laboratories) by routine methods. After coupling, all remaining active sites on the beads were quenched by reaction with glycine ethyl ester.
The beads were incubated for two weeks with bovine serum albumin and 400 mN glucose-6-phosphate, a more reactive form of glucose which forms early glycosylation products with proteins more rapidly than does glucose. […] The bovine serum albumin was radioiodinated so that the amount which became bound to the beads could be measured. […]
After a two-week incubation of the reaction mixtures at 37° C., the beads were washed extensively with chaotropic agents and the covalently bound radioactivity was determined. […]

diabetic rats = conditions: cited from earlier work
calf skin collagen = experiment: Calf skin collagen crosslinking by glucose: cyanogen bromide fragments on SDS-polyacrylamide gel; assay type: biochemical; conditions: 140 mM glucose, 200 mM aminoguanidine, 3 weeks, 35° C.; Lane B
Procedure: Collagen from samples of calf skin were extracted into acetic acid and then precipitated with 0.6 M sodium chloride. These procedures removed from the solution skin collagen that was already permanently crosslinked or denatured. Native collagen fibrils were reformed by dialysis against 0.02M phosphate buffer, and these were incubated for 3 weeks at 35° C. in the presence of 140 mM glucose and with or without 200 mM aminoguanidine. After incubation, the samples were dialyzed and the degree of crosslinking was determined by two methods. First, the amount of reacted collagen which could be solubilized by treatment in 2% sodium dodecyl sulfate at 100° C. was measured.
The reacted collagen was further examined by cleaving it into fragments using cyanogen bromide treatment in formic acid, the resulting protein fragments were separated by size by sodium dodecyl sulfate-polyacrylamide gel electrophoresis. After electrophoresis, the protein fragments were identified in the gel using silver staining.
Referring to FIG. 3B, Lane C contains collagen that was incubated with glucose alone. It is noted that a large amount of high molecular weight fragments form a continuous band at the top of the gel, indicating a large range of high molecular weight fragments. Some of this material could not enter the gel and is present in the […] stacking gel above the gradient gel. […]

N=C(N)NN [aminoguanidine hydrochloride]
irritation compared with the parent free base [1]: less irritating
IgG bound to glomerular basement membranes (normal and diabetic rats [2]; diabetic rats): the same low level of IgG in normal animals
IgG bound to glomerular basement membranes (normal and diabetic rats [2]; normal rats): about the same low level
LIPOPROTEIN BOUND PER MG COLLAGEN (normal and diabetic rats [3]; diabetic rats): 0.64
LIPOPROTEIN BOUND PER MG COLLAGEN (normal and diabetic rats [3]; normal rats): 0.53
amount of protein trapping (radiolabeled albumin bound to collagen beads) (gelatin (collagen)): greatly reduced
kidney glomerular basement membrane protein crosslinking (diabetic rats): diminishes kidney glomerular basement membrane protein crosslinking in diabetic rats
high molecular weight fragments after cyanogen bromide cleavage (gel) (calf skin collagen): no large amount of high molecular weight material

Source: patent US20020115724A1, “Methods and agents for inhibiting protein aging” (priority 1985, published 2002)
